Data from patent US9416126B2, “Compounds inhibiting leucine-rich repeat kinase enzyme activity” (Merck Sharp & Dohme Corp., priority 2013, dated 2016).
pIC50: −log10 of the molar value.

Molecular target: LRRK2(G2019S mutation, GST-LRRK2(amino acids 970-2527)) (Homo sapiens (Human), UniProt Q5S007, G2019S)
Test: LRRK2 Km ATP LanthaScreen Assay
Type: biochemical
How it was run: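 TR-FRET: GST-LRRK2 970-2527 G2019S (2.5 nM solution) preincubated 30 min with compound (98 μM top, 1:2.15 dilutions), then 800 nM fluorescein-LRRKtide and 184 μM ATP solution added for 60 min at room temperature in Tris pH 8.5 buffer. Stopped with EDTA and Tb anti-phospho-LRRKtide antibody; IC50 is a mean of several tests.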

[1] = Km ATP (184 μM ATP solution), G2019S LRRK2, mean IC50

Chain of LRRK2(G2019S mutation, GST-LRRK2(amino acids 970-2527)) (Q5S007 970-2527 G2019S): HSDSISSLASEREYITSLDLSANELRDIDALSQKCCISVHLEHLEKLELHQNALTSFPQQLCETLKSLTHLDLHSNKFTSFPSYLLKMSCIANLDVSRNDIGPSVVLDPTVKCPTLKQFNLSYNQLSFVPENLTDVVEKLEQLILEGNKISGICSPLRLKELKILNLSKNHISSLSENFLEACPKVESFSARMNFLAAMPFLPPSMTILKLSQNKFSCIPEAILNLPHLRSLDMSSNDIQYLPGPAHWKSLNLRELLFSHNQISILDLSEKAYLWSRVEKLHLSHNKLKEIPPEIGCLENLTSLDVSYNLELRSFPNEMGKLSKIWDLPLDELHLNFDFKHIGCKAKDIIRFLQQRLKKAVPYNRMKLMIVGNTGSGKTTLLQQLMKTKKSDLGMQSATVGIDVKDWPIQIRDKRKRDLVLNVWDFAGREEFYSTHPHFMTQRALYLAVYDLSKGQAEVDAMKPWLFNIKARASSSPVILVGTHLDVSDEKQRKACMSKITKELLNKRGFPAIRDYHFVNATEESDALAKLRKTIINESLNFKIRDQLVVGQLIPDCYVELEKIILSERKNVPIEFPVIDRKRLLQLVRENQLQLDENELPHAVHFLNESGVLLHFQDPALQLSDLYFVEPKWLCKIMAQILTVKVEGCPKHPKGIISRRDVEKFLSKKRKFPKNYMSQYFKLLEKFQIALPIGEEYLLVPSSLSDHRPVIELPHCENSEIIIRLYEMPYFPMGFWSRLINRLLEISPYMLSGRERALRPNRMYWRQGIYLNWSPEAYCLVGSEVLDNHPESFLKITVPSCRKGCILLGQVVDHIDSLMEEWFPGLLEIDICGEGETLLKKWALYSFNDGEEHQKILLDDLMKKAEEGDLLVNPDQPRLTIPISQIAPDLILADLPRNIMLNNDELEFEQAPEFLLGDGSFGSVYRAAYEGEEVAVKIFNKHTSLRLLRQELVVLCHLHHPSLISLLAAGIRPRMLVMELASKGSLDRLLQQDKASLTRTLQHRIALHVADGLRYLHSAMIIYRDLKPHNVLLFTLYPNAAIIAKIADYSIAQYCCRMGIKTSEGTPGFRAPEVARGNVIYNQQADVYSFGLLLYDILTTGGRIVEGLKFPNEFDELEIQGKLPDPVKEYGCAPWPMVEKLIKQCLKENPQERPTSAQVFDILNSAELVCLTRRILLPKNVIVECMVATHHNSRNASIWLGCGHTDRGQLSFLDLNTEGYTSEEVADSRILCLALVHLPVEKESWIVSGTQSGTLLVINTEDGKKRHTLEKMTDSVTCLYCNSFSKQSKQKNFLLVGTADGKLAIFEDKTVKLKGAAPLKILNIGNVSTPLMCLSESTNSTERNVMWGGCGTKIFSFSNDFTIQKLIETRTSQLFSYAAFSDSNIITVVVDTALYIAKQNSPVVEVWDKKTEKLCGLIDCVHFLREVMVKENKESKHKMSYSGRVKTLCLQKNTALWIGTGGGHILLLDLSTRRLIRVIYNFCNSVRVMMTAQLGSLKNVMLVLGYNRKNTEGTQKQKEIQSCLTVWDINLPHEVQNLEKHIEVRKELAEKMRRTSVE

C[C@H]1CN(c2cc(-c3n[nH]c4ccc(-c5cnn(C)c5)cc34)ncn2)CCO1 [Example M12]
pIC50 [1]: 8.66

Cn1cc(-c2ccc3[nH]nc(-c4cc(N5C[C@H](F)[C@@H](F)C5)ncn4)c3c2)cn1 [Example M13]
pIC50 [1]: 8.42

Cc1nc2c(o1)CCN(c1cc(-c3n[nH]c4ccc(-c5cnn(C)c5)cc34)ncn1)C2 [Example M14]
pIC50 [1]: 8.55

Cn1cc(-c2ccc3[nH]nc(-c4cc(N5CCN6C(=O)OCC6C5)ncn4)c3c2)cn1 (centres unmarked) [Example M15]
pIC50 [1]: 8.20

Cn1cc(-c2ccc3[nH]nc(-c4cc(N5CCCC6(CCO6)C5)ncn4)c3c2)cn1 (centres unmarked) [Example M16]
pIC50 [1]: 7.96

CN(C)[C@H]1CN(c2cc(-c3n[nH]c4ccc(-c5cnn(C)c5)cc34)ncn2)C[C@@H]1O [Example M17]
pIC50 [1]: 7.87

Cn1cc(-c2ccc3[nH]nc(-c4cc(N5CCS(=O)(=O)CC5)ncn4)c3c2)cn1 [Example M18]
pIC50 [1]: 7.65

CN(C)[C@H]1CCN(c2cc(-c3n[nH]c4ccc(-c5cnn(C)c5)cc34)ncn2)C1 [Example M19]
pIC50 [1]: 8.34

Cn1cc(-c2ccc3[nH]nc(-c4cc(N5CCOC(C)(C)C5)ncn4)c3c2)cn1 [Example M20]
pIC50 [1]: 8.05

Cn1cc(-c2ccc3[nH]nc(-c4cc(N5CCC(F)(F)CC5)ncn4)c3c2)cn1 [Example M21]
pIC50 [1]: 8.34

Cn1cc(-c2ccc3[nH]nc(-c4cc(N5CCC(n6cccn6)C5)ncn4)c3c2)cn1 (centres unmarked) [Example M22]
pIC50 [1]: 8.44

CO[C@H]1CN(c2cc(-c3n[nH]c4ccc(-c5cnn(C)c5)cc34)ncn2)C[C@@H]1O [Example M23]
pIC50 [1]: 8.22

Cn1cc(-c2ccc3[nH]nc(-c4cc(N5CCC(F)(CO)CC5)ncn4)c3c2)cn1 [Example M24]
pIC50 [1]: 8.54

Cn1cc(-c2ccc3[nH]nc(-c4cc(N5CCN(CCCO)CC5)ncn4)c3c2)cn1 [Example M25]
pIC50 [1]: 8.52

Cn1cc(-c2ccc3[nH]nc(-c4cc(N5CCC(F)(F)C5)ncn4)c3c2)cn1 [Example M26]
pIC50 [1]: 8.43

Cn1cc(-c2ccc3[nH]nc(-c4cc(N5CCC(F)(C#N)CC5)ncn4)c3c2)cn1 [Example M27]
pIC50 [1]: 8.52

Cn1cc(-c2ccc3[nH]nc(-c4cc(N5CCc6nccnc6C5)ncn4)c3c2)cn1 [Example M28]
pIC50 [1]: 8.57

CC(C)Oc1cc2c(-c3cc(N4CCn5ncnc5C4)ncn3)n[nH]c2cc1F [Example N1]
pIC50 (Examples N1-N25): 8.15

COCC(=O)N1CCN(c2cc(-c3n[nH]c4cc(F)c(OC(C)C)cc34)ncn2)CC1 [Example N2]
pIC50 (Examples N1-N25): 8.25

CC(C)Oc1cc2c(-c3cc(N4CCOC(C(F)(F)F)C4)ncn3)n[nH]c2cc1F (centres unmarked) [Example N3]
pIC50 (Examples N1-N25): 7.58

CC(C)Oc1cc2c(-c3cc(N4CCN(C5CCS(=O)(=O)C5)CC4)ncn3)n[nH]c2cc1F (centres unmarked) [Example N4]
pIC50 (Examples N1-N25): 8.60

CC(C)Oc1cc2c(-c3cc(N4CCn5nc(C(F)(F)F)nc5C4C)ncn3)n[nH]c2cc1F (centres unmarked) [Example N5]
pIC50 (Examples N1-N25): 6.75

CC(C)Oc1cc2c(-c3cc(N4CC[C@H](CO)C4)ncn3)n[nH]c2cc1F [Example N6]
pIC50 (Examples N1-N25): 7.99

CC(C)Oc1cc2c(-c3cc(N4CC[C@@H](CO)C4)ncn3)n[nH]c2cc1F [Example N7]
pIC50 (Examples N1-N25): 8.54

CC(C)Oc1cc2c(-c3cc(N4CCC(F)(F)C4)ncn3)n[nH]c2cc1F [Example N8]
pIC50 (Examples N1-N25): 8.21

CC(C)Oc1cc2c(-c3cc(N4CC[S+]([O-])CC4)ncn3)n[nH]c2cc1F [Example N9]
pIC50 (Examples N1-N25): 8.21

CC(C)Oc1cc2c(-c3cc(N4CCc5oncc5C4)ncn3)n[nH]c2cc1F [Example N10]
pIC50 (Examples N1-N25): 8.01

CC(C)Oc1cc2c(-c3cc(N4C5CCC4COC5)ncn3)n[nH]c2cc1F [Example N11]
pIC50 (Examples N1-N25): 7.74

COCC1CN(c2cc(-c3n[nH]c4cc(F)c(OC(C)C)cc34)ncn2)CCO1 (centres unmarked) [Example N12]
pIC50 (Examples N1-N25): 8.54

CC(C)Oc1cc2c(-c3cc(N4CCC(n5cccn5)C4)ncn3)n[nH]c2cc1F (centres unmarked) [Example N13]
pIC50 (Examples N1-N25): 8.21

Cc1nc2c(o1)CCN(c1cc(-c3n[nH]c4cc(F)c(OC(C)C)cc34)ncn1)C2 [Example N14]
pIC50 (Examples N1-N25): 8.19

CC(C)Oc1cc2c(-c3cc(N4CCOC(C)(C)C4)ncn3)n[nH]c2cc1F [Example N15]
pIC50 (Examples N1-N25): 8.21

CC(C)Oc1cc2c(-c3cc(N4CCC(F)(C#N)CC4)ncn3)n[nH]c2cc1F [Example N16]
pIC50 (Examples N1-N25): 7.75

CO[C@H]1CN(c2cc(-c3n[nH]c4cc(F)c(OC(C)C)cc34)ncn2)C[C@@H]1O [Example N17]
pIC50 (Examples N1-N25): 8.11

CC(C)Oc1cc2c(-c3cc(N4C[C@H](O)[C@@H](N(C)C)C4)ncn3)n[nH]c2cc1F [Example N18]
pIC50 (Examples N1-N25): 8.10

CC(C)Oc1cc2c(-c3cc(N4CCS(=O)(=O)CC4)ncn3)n[nH]c2cc1F [Example N19]
pIC50 (Examples N1-N25): 7.62

CC(C)Oc1cc2c(-c3cc(N4CCC(F)(CO)CC4)ncn3)n[nH]c2cc1F [Example N20]
pIC50 (Examples N1-N25): 8.64

CCOC(=O)N1CCN(c2cc(-c3n[nH]c4cc(F)c(OC(C)C)cc34)ncn2)CC1 [Example N21]
pIC50 (Examples N1-N25): 8.21
